US20070092925A1, “Method of treating skin by delivering specific protein stabilizers/protectors to skin proteins and methods of selecting said stabilizers” (Conopco, Inc., d/b/a UNILEVER, priority 2005, published 2007)
Entries after “also recorded” stand apart in the source; their conditions may differ.

Key:
[1] = molecular target: T1, trypsin from bovine pancreas (Bos taurus, UniProt P00760); experiment: trypsin autolysis followed by fluorescence spectroscopy (ratio R versus time, FIG. 2); type: biochemical; settings: 0.1 M TRIS buffer pH 7.5, compared with water
T1 construct: purchased Sigma; host or cells: bovine pancreas
T1 sequence (P00760 24-246): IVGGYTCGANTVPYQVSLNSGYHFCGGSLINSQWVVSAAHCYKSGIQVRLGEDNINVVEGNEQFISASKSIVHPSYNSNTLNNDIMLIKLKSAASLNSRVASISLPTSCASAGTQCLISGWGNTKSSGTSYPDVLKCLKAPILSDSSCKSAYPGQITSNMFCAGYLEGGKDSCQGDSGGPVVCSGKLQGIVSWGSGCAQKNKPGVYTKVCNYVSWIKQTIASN
Text: (§1) The process of serine protease (e.g., trypsin) autolysis can be followed by using fluorescence spectroscopy. […] Consequently, the autolysis of trypsin and subsequent unfolding is accompanied by spectral changes that can be detected by obtaining fluorescence spectra at various time points after preparing a fresh solution of trypsin.
(§2) The iso-emissive points (fluorescence intensity independent of time) at 305 nm and 360 nm are typical of a situation where one fluorescent component (native protein) is the source of the other fluorescent component(s) (denatured protein and cleaved fragments). Applicants quantified the change in the trypsin spectrum by taking a ratio, R, of the area between 320 nm and 330 nm and the area between 380 nm and 400 nm: [formula]
(§3) The numerator represents the relative amount of native protein in the sample and the denominator represents relative amount of denatured protein and cleaved fragments. R therefore is a measure of how far the autolysis process has progressed.
(§4) Protocol—Fresh solutions of trypsin (2.5 mg/ml) were prepared by mixing the appropriate amount of solid trypsin from bovine pancreas (Sigma) with appropriate amounts of buffer solution (1M, pH 7.5; VWR), water, and protein stabilizing compound (pyrollidone carboxylic acid—Sigma Ultrapure; trimethylamine N-oxide—Fluka Purum; glycerin—J.T. Baker; 1-Propanaminium, 2,3-dihydroxy-N,N,N-trimethyl-, chloride—synthesized and purified in house), and/or protein destabilizing compound (urea—J.T. Baker Ultrapure Bioreagent); sodium dodecyl sulfate—ICN Ultrapure). All chemicals were used as supplied. Within minutes of dissolving the solid trypsin the solution was transferred into a quartz fluorescence cuvette and placed inside a Perkin Elmer LS 50 B fluorescence spectrometer. Fluorescence spectra were subsequently measured, either every 5 minutes or every 10 minutes. The excitation wavelength was 280 nm.
A seen in FIG. 2, applicants plotted trypsin autolysis as followed by fluorescence spectroscopy in various media with 0.1 M TRIS buffer pH 7.5. These media include: 0.5 M PCA, i.e., pyrollidone carboxylic acid (closed triangles); 1 M TMAO (closed diamonds); 1 M glycerol (closed circles); 1M 1-propanaminium, 2,3-dihydroxy-N,N,N-trimethyl-,chloride (crosses); water (closed squares); 1 M urea (open triangles); and 0.5 mM SDS, i.e., sodium dodecyl sulphate (open circles).
The ability of various compounds or combinations of compounds to increase or depress the rate of trypsin autolysis can be compared by plotting R as a function of time as is shown, for example, in FIG. 2.

[2] = molecular target: T1, trypsin from bovine pancreas; experiment: trypsin autolysis followed by fluorescence spectroscopy in the presence of the denaturant SDS (FIG. 3); type: biochemical
Text: as §1, §2, §3, §4
For reference purposes, also shown are autolysis traces in the presence of 0.5 mM SDS without any protein stabilizer (open squares) and without any SDS or protein stabilizer (closed squares).

[3] = 1.0 M stabilizer plus 0.5 mM SDS

SMILES | rate of trypsin autolysis (R as a function of time) ([1]; […] compound) | rate of trypsin autolysis in the presence of SDS [2, 3] | other results
OCC(O)CO [glycerol] | significantly reduces the rate of trypsin autolysis | able to “protect” proteins against a denaturing force | –
NC(N)=O [urea] | significant increase in the rate of trypsin hydrolysis | – | –
O=C1CC[C@@H](C(=O)O)N1 [PCA, pyrollidone carboxylic acid] | – | – | rate of trypsin autolysis (R as a function of time) ([1]; 0.5 M compound): virtual absence of autolysis; also recorded: by far the strongest ability of any of the compounds tested to stabilize trypsin; rate of trypsin autolysis in the presence of SDS ([2]; 0.5 M stabilizer plus 0.5 mM SDS): able to “protect” proteins against a denaturing force; also recorded: still slower than in the absence of both SDS and a protein stabilizer
C[N+](C)(C)CC(O)CO.[Cl-] (stereo not drawn) [1-Propanaminium, 2,3-dihydroxy-N,N,N-trimethyl-, chloride] | exceed that of both glycerol and TMAO | – | –
C[N+](C)(C)[O-] [TMAO, trimethylamine N-oxide] | exceeds glycerol in its ability to stabilize trypsin against autolysis | able to “protect” proteins against a denaturing force; also recorded: still slower than in the absence of both SDS and a protein stabilizer | –
CCCCCCCCCCCCOS(=O)(=O)[O-].[Na+] [SDS, sodium dodecyl sulfate] | – | – | rate of trypsin autolysis (R as a function of time) ([1]; 0.5 mM compound): significant increase in the rate of trypsin hydrolysis
